{
  "source": "the NIST ThermoML archive (doi:10.1016/j.fluid.2013.05.013)",
  "conditions": "101.33 kPa, Liquid; for viscosity: Concentric cylinders viscometry; for mass density: Vibrating tube method",
  "note": "± gives the expanded uncertainty stated by the source.",
  "data": [
    {"smiles": "CCn1cc[n+](C)c1.O=S(=O)([N-]S(=O)(=O)C(F)(F)F)C(F)(F)F", "values": [
      {"measurement": "viscosity", "setting": "288.15 K", "value": "47.97 ± 0.29", "unit": "mPa·s"},
      {"measurement": "mass density", "setting": "288.15 K", "value": "1528.51 ± 0.7", "unit": "kg/m3"},
      {"measurement": "viscosity", "setting": "298.15 K", "value": "32.51 ± 0.2", "unit": "mPa·s"},
      {"measurement": "mass density", "setting": "298.15 K", "value": "1518.38 ± 0.69", "unit": "kg/m3"},
      {"measurement": "viscosity", "setting": "308.15 K", "value": "23.34 ± 0.14", "unit": "mPa·s"},
      {"measurement": "mass density", "setting": "308.15 K", "value": "1508.33 ± 0.68", "unit": "kg/m3"},
      {"measurement": "viscosity", "setting": "318.15 K", "value": "17.46 ± 0.11", "unit": "mPa·s"},
      {"measurement": "mass density", "setting": "318.15 K", "value": "1498.36 ± 0.67", "unit": "kg/m3"}
    ]},
    {"smiles": "CCn1cc[n+](C)c1.O=S(=O)([O-])C(F)(F)F", "note": "[1-ethyl-3-methylimidazolium trifluoromethanesulfonate]", "values": [
      {"measurement": "viscosity", "setting": "288.15 K", "value": "67.66 ± 0.45", "unit": "mPa·s"},
      {"measurement": "mass density", "setting": "288.15 K", "value": "1392.47 ± 0.57", "unit": "kg/m3"},
      {"measurement": "viscosity", "setting": "298.15 K", "value": "45.12 ± 0.28", "unit": "mPa·s"},
      {"measurement": "mass density", "setting": "298.15 K", "value": "1384.05 ± 0.56", "unit": "kg/m3"},
      {"measurement": "viscosity", "setting": "308.15 K", "value": "31.89 ± 0.2", "unit": "mPa·s"},
      {"measurement": "mass density", "setting": "308.15 K", "value": "1375.68 ± 0.56", "unit": "kg/m3"},
      {"measurement": "viscosity", "setting": "318.15 K", "value": "23.4 ± 0.14", "unit": "mPa·s"},
      {"measurement": "mass density", "setting": "318.15 K", "value": "1367.37 ± 0.55", "unit": "kg/m3"}
    ]}
  ]
}
